Assay results as given in patent US20240287022A1 (Merck Sharp & Dohme LLC, priority 2021, published 2024).

Biological target: recombinant IL4I1 (Homo sapiens (Human), UniProt Q96RQ9)
Test: IL4I1 Enzymatic Assay (Amplex Red/HRP coupled H2O2 detection)
Type: biochemical
Conditions: 1 nM IL4I1, 1 mM each Phe/Tyr/Trp, four-hour pre-incubation, 120 minutes reaction, top compound concentration of 10000 nM
How it was run: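 Recombinant IL4I1 (1 nM final) was pre-incubated 4 h at ambient temperature with compound in 50 mM Hepes pH 7.0, 0.005% Tween20. Reaction ran 120 min with 1 mM each Phe/Tyr/Trp, 0.05 mM Amplex Red and 1 U/mL HRP. Resorufin fluorescence (544/590 nm) was read, and EC50 fitted from ten-point 1:3 titrations (top 10000 nM) by four-parameter regression.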

recombinant IL4I1, sequence (Q96RQ9 22-567): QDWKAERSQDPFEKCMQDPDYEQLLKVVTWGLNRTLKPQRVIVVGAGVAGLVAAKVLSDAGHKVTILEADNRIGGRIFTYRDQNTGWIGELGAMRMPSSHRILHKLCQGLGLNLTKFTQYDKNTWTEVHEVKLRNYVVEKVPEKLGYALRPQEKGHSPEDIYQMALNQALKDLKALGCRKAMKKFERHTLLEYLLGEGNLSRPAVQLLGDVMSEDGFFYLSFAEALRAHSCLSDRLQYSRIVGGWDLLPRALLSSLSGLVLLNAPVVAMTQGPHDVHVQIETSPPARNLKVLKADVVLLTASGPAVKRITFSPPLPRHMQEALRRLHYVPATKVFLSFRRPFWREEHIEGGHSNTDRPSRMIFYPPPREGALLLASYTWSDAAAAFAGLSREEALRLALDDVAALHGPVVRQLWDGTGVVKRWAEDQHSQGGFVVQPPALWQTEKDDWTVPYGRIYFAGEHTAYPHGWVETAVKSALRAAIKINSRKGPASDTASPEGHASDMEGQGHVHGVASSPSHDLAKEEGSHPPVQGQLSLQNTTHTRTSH

CC(=O)NCc1ccc(Cc2cc3ccccc3[nH]c2=O)c(F)c1 [Example 167, N-(3-fluoro-4-((2-oxo-1,2-dihydroquinolin-3-yl)methyl)benzyl)acetamide]
EC50: 4.9 nM

CC(C)(O)c1ccc2[nH]c(=O)c(Cc3ccccc3)cc2c1 [Example 173, 3-Benzyl-6-(2-hydroxypropan-2-yl)quinolin-2(1H)-one]
EC50: 6840 nM

O=c1[nH]c2ccccc2cc1Cc1nnc(-c2cnn[nH]2)o1 [Example 4, 3-((5-(1H-1,2,3-triazol-5-yl)-1,3,4-oxadiazol-2-yl)methyl)quinolin-2(1H)-one]
EC50: 77.1 nM

O=c1[nH]c2ccccc2cc1Cc1nnc(C2CC3(CCC3)C2)o1 [Example 21, 3-((5-(spiro[3.3]heptan-2-yl)-1,3,4-oxadiazol-2-yl)methyl)quinolin-2(1H)-one]
EC50: 177 nM

O=C1OCCN1c1ccc(Cc2cc3ccccc3[nH]c2=O)cn1 [Example 108, 3-(5-((2-oxo-1,2-dihydroquinolin-3-yl)methyl)pyridin-2-yl)oxazolidin-2-one]
EC50: 1.9 nM

Cc1c(Cc2cc3ccccc3[nH]c2=O)cnn1C [Example 109, 3-((1,5-dimethyl-1H-pyrazol-4-yl)methyl)quinolin-2(1H)-one]
EC50: 39.9 nM

Cc1c(Cc2ccccc2)c(=O)[nH]c2ccccc12 [Example 164, 3-Benzyl-4-methylquinolin-2(1H)-one]
EC50: 10000 nM

O=c1[nH]c2ccccc2cc1Cc1nnc(Cc2cnccn2)o1 [Example 31, 3-((5-(pyrazin-2-ylmethyl)-1,3,4-oxadiazol-2-yl)methyl)quinolin-2(1H)-one]
EC50: 172 nM

COc1ccc(C#N)cc1Cc1nnc(Cc2cc3ccccc3[nH]c2=O)o1 [Example 35, 4-methoxy-3-((5-((2-oxo-1,2-dihydroquinolin-3-yl)methyl)-1,3,4-oxadiazol-2-yl)methyl)benzonitrile]
EC50: 46.5 nM

CC1(c2nnc(Cc3cc4ccccc4[nH]c3=O)o2)CC1 [Example 42, 3-((5-(1-methylcyclopropyl)-1,3,4-oxadiazol-2-yl)methyl)quinolin-2(1H)-one]
EC50: 21 nM

COc1ccc2[nH]c(=O)c(Cc3ccccc3)cc2c1 [Example 172, 3-benzyl-6-methoxyquinolin-2(1H)-one]
EC50: 532 nM

CC(O)C(C#N)c1ccc(Cc2cc3ccccc3[nH]c2=O)cc1 (single isomer, unassigned) [Example 102A, 3-hydroxy-2-(4-((2-oxo-1,2-dihydroquinolin-3-yl)methyl)phenyl)butanenitrile]
EC50: 5.2 nM

NS(=O)(=O)c1cccc(Cc2cc3cc(F)ccc3[nH]c2=O)c1 [Example 120, 3-((6-fluoro-2-oxo-1,2-dihydroquinolin-3-yl)methyl)benzenesulfonamide]
EC50: 3.6 nM

NS(=O)(=O)Cc1ccc(Cc2cc3ccccc3[nH]c2=O)cc1 [Example 72, (4-((2-oxo-1,2-dihydroquinolin-3-yl)methyl)phenyl)methanesulfonamide]
EC50: 2.2 nM

O=C1COc2c(F)cc(Cc3cc4ccccc4[nH]c3=O)cc2N1 [Example 176, 8-Fluoro-6-((2-oxo-1,2-dihydroquinolin-3-yl)methyl)-2H-benzo[b][1,4]oxazin-3(4H)-one]
EC50: 1.4 nM

Cn1ncc2cc(Cc3cc4ccccc4[nH]c3=O)ccc21 [Example 153, 3-((1-methyl-1H-indazol-5-yl)methyl)quinolin-2(1H)-one]
EC50: 1.2 nM

CC(=O)NCc1ncc(Cc2cc3ccccc3[nH]c2=O)cc1F [Example 82]
EC50: 10 nM

CC(=O)NCc1ccc(Cc2cc3ccccc3[nH]c2=O)cn1 [Example 84, N-((5-((2-oxo-1,2-dihydroquinolin-3-yl)methyl)pyridin-2-yl)methyl)acetamide]
EC50: 13.8 nM

O=c1[nH]c2ccncc2cc1Cc1ccc(C2(O)CCC2)cc1 [Example 113, 3-(4-(1-hydroxycyclobutyl)benzyl)-1,6-naphthyridin-2(1H)-one]
EC50: 7 nM

CC1CN(c2ccc(Cc3cc4cnccc4[nH]c3=O)cc2)C(=O)O1 (single isomer, unassigned) [Example 189, (S or R)-5-methyl-3-(4-((2-oxo-1,2-dihydro-1,6-naphthyridin-3-yl)methyl)phenyl)oxazolidin-2-one]
EC50: 16.7 nM

CS(=O)(=O)NCc1ncc(Cc2cc3ccccc3[nH]c2=O)cc1Cl [Example 91, N-((3-chloro-5-((2-oxo-1,2-dihydroquinolin-3-yl)methyl)pyridin-2-yl)methyl)methanesulfonamide]
EC50: 10.9 nM

N#CC1(c2ccc(Cc3cc4ccccc4[nH]c3=O)cc2)CCOCC1 [Example 107, 4-(4-((2-oxo-1,2-dihydroquinolin-3-yl)methyl)phenyl)tetrahydro-2H-pyran-4-carbonitrile]
EC50: 3.2 nM

COC(=O)NCc1nnc(Cc2cc3ccccc3[nH]c2=O)o1 [Example 43, methyl ((5-((2-oxo-1,2-dihydroquinolin-3-yl)methyl)-1,3,4-oxadiazol-2-yl)methyl)carbamate]
EC50: 588 nM

O=c1[nH]c2ccccc2cc1Cc1nnc(-c2cc(C(F)(F)F)[nH]n2)o1 [Example 28, 3-((5-(5-(trifluoromethyl)-1H-pyrazol-3-yl)-1,3,4-oxadiazol-2-yl)methyl)quinolin-2(1H)-one]
EC50: 125 nM

Cn1c(=O)c(Cc2cccc(OC(F)(F)F)c2)cc2ccccc21 [Example 144, 1-methyl-3-(3-(trifluoromethoxy)benzyl)quinolin-2(1H)-one]
EC50: 7.2 nM

O=c1[nH]c2ccccc2cc1Cc1cnn2ncccc12 [Example 158, 3-(pyrazolo[1,5-b]pyridazin-3-ylmethyl)quinolin-2(1H)-one]
EC50: 60.2 nM

O=c1[nH]c2ccccc2cc1Cc1ccc(CC2CNC2)cc1 [compound 64, 3-(4-(azetidin-3-ylmethyl)benzyl)quinolin-2(1H)-one]
EC50: 10.8 nM

Cc1nn(C)cc1-c1nnc(Cc2cc3ccccc3[nH]c2=O)o1 [Example 36, 3-((5-(1,3-dimethyl-1H-pyrazol-4-yl)-1,3,4-oxadiazol-2-yl)methyl)quinolin-2(1H)-one]
EC50: 30.7 nM

CC(C)(C)n1cc(Cc2cc3ccccc3[nH]c2=O)cn1 [Example 110, 3-((1-(tert-butyl)-1H-pyrazol-4-yl)methyl)quinolin-2(1H)-one]
EC50: 11.5 nM

CC(C)(O)Cc1ccc(Cc2cc3ccccc3[nH]c2=O)cc1 [Example 179, 3-(4-(2-Hydroxy-2-methylpropyl)benzyl)quinolin-2(1H)-one]
EC50: 4.9 nM

O=c1[nH]c2ccccc2cc1Cc1nnc(-c2cccc(C(F)(F)F)c2)o1 [Example 10, 3-((5-(3-(trifluoromethyl)phenyl)-1,3,4-oxadiazol-2-yl)methyl)quinolin-2(1H)-one]
EC50: 7.6 nM

CC1(c2ccc(Cc3cc4ccccc4[nH]c3=O)cc2)CNC1 [Example 79, 3-(4-(3-methylazetidin-3-yl)benzyl)quinolin-2(1H)-one]
EC50: 11.5 nM

C[C@H]1Oc2ccc(Cc3cc4ccccc4[nH]c3=O)cc2NC1=O (single isomer, unassigned) [Example 142A, 2-methyl-6-((2-oxo-1,2-dihydroquinolin-3-yl)methyl)-2H-benzo[b][1,4]oxazin-3(4H)-one]
EC50: 4.4 nM

CC1CC(=O)NC1c1ccc(Cc2cc3ccccc3[nH]c2=O)cc1 (stereo not drawn) [Example 45, 3-(4-(3-methyl-5-oxopyrrolidin-2-yl)benzyl)quinolin-2(1H)-one]
EC50: 6.7 nM

O=c1[nH]c2ccccc2cc1Cc1ccc(C(O)C(F)(F)F)cc1 (racemic) [Example 126, rac-3-(4-(2,2,2-trifluoro-1-hydroxyethyl)benzyl)quinolin-2(1H)-one]
EC50: 2.7 nM

O=C1NCc2cc(F)c(Cc3cc4ccccc4[nH]c3=O)cc21 [Example 87, 3-((6-fluoro-3-ixoisoindolin-5-yl)methyl)quinolin-2(1H)-one]
EC50: 4.2 nM

O=c1[nH]c2ccccc2cc1Cc1ccc(OCC2CC2)nc1 [Example 88, 3-((6-(cyclopropylmethoxy)pyridin-3-yl)methyl)quinolin-2(1H)-one]
EC50: 1.3 nM

C[C@@](O)(c1ccc(Cc2cc3ccccc3[nH]c2=O)cc1)C(F)F (stereo in doubt) [Example 90A, 3-(4-(1,1-difluoro-2-hydroxypropan-2-yl)benzyl)quinolin-2(1H)-one]
EC50: 9.6 nM

O=c1[nH]c2ccccc2cc1Cc1nnc(Cc2ccccc2F)o1 [Example 8, 3-((5-(2-fluorobenzyl)-1,3,4-oxadiazol-2-yl)methyl)quinolin-2(1H)-one]
EC50: 12.8 nM

CS(=N)(=O)Cc1ccc(Cc2cc3ccccc3[nH]c2=O)cc1 (single isomer, unassigned) [Example 186, 3-(4-(((R or S)-methylsulfonimidoyl)methyl)benzyl)quinolin-2(1H)-one]
EC50: 28.2 nM

O=C1CC[C@@H](c2ccc(Cc3cc4ccccc4[nH]c3=O)cc2)N1 [Example 159, (S)-3-(4-(5-oxopyrrolidin-2-yl)benzyl)quinolin-2(1H)-one]
EC50: 4.1 nM

O=C1N(c2ccc(Cc3cc4cnccc4[nH]c3=O)cc2)CCC1(F)F [compound 62, 3-(4-(3,3-difluoro-2-oxopyrrolidin-1-yl)benzyl)-1,6-naphthyridin-2(1H)-one]
EC50: 6 nM

CC(C)(C#N)c1ccc(Cc2cc3cnccc3[nH]c2=O)cc1 [Example 100, 2-methyl-2-(4-((2-oxo-1,2-dihydro-1,6-naphthyridin-3-yl)methyl)phenyl)propanenitrile]
EC50: 7.3 nM

O=c1[nH]c2ccccc2cc1Cc1nnc(-c2ncnc3c2CCC3)o1 [Example 40, 3-((5-(6,7-dihydro-5H-cyclopenta[d]pyrimidin-4-yl)-1,3,4-oxadiazol-2-yl)methyl)quinolin-2(1H)-one]
EC50: 23.4 nM

O=c1[nH]c2ccccc2cc1Cc1nnc(-c2c[nH]c(C3CC3)n2)o1 [Example 18, 3-((5-(2-cyclopropyl-1H-imidazol-4-yl)-1,3,4-oxadiazol-2-yl)methyl)quinolin-2(1H)-one]
EC50: 23.4 nM
